Experimental data from patent US9862676B2, “Hydroxamic acid derivative or salt thereof” (TOYAMA CHEMICAL CO., LTD., priority 2013, dated 2018).
Converted amounts (≈) assume the structure as drawn.

Tests used:
[1] = biological target: T1, Pseudomonas aeruginosa LpxC enzyme (Pseudomonas aeruginosa, UniProt P47205); test: Test to evaluate Pseudomonas aeruginosa LpxC enzyme inhibitory activity; assay type: biochemical
T1 construct: made in house; host or cells: Escherichia coli
T1 sequence (P47205 1-303): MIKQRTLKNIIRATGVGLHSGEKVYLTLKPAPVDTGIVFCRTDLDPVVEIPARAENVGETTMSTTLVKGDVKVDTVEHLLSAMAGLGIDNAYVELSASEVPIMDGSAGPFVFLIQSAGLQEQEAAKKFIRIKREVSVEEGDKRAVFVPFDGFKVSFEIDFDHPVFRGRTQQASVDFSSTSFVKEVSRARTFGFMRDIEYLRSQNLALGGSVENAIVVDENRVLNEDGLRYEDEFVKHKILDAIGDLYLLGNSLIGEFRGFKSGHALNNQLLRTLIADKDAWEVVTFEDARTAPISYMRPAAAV
Description: The Pseudomonas aeruginosa LpxC enzyme activity was measured by reacting LpxC with its substrate UDP-3-O—(R-3-hydroxydecanoyl)-N-acetylglucosamine and measuring the amount of the reaction product by the quantification of an amino group present in the product. This measurement was carried out according to a method described in, for example, International Publication No. WO 11/132712 pamphlet or a method similar thereto.
Specifically, to the Pseudomonas aeruginosa LpxC enzyme (which was obtained by preparing chromosomal DNA from Pseudomonas aeruginosa, obtaining the Pseudomonas aeruginosa LpxC gene by PCR (polymerase chain reaction) using LpxC-specific primers, and incorporating this gene into a vector, followed by gene expression using Escherichia coli), 20 μmol/L UDP-3-O—(R-3-hydroxydecanoyl)-N-acetylglucosamine (Wako Pure Chemical Industries, Ltd.) was added, and the mixture was incubated at 25° C. for 1 hour. This reaction was carried out in a 40 mmol/L HEPES buffer solution (pH 8.0) containing 0.02% Brij 35 and 80 μmol/L dithiothreitol. The reaction was terminated by the addition of 20% acetic acid (final concentration: 0.95%) to the reaction solution. Then, fluorescamine (final concentration: 1.6 mg/mL) dissolved in anhydrous dioxane was added thereto. The amount of the reaction product was detected at an excitation wavelength/fluorescence wavelength=390 nm/495 nm. Each test compound was allowed to coexist at various concentrations in the reaction to obtain an inhibition curve.

[2] = test system: Escherichia coli ATCC25922 strain; test: Antibacterial activity, MIC by broth microdilution (CLSI); assay type: cell-based
Description: (§1) The minimum inhibitory concentration (MIC) was measured according to the CLSI (Clinical and Laboratory Standards Institute) standard method using a broth microdilution method given below. The bacteria used were a Pseudomonas aeruginosa ATCC27853 strain, an Escherichia coli ATCC25922 strain and a Klebsiella pneumoniae ATCC13883 strain. Test bacterial cells of each strain cultured overnight in a Mueller-Hinton agar medium were scraped off and suspended at the McFarland 0.5 standard, and this suspension was diluted 10-fold to prepare an inoculum solution. The inoculum solution (0.005 mL) was inoculated to a cation-adjusted Mueller-Hinton medium containing each test compound and cultured at 35° C. for 16 to 20 hours. The minimum drug concentration at which bacterial growth was not visible to the naked eye was defined as MIC.

[3] = test system: Klebsiella pneumoniae ATCC13883 strain; test: as above; assay type: cell-based
Description: as §1

[4] = test system: Pseudomonas aeruginosa ATCC27853 strain; test: as above; assay type: cell-based
Description: as §1

[5] = Test on inhibition of Vero cell growth (XTT); assay type: cell-based; settings: African green monkey, Vero cells, 3 days culture, read-out: CC50 (concentration inhibiting 50% of cell growth)
Description: Each test compound was dissolved in dimethyl sulfoxide, adjusted to each concentration using E'MEM, and then dispensed at 0.1 mL/well to 96-well microplates. The Vero cell suspension was prepared at 3×10^4 cells/mL using E'MEM supplemented with 20% FBS, inoculated thereto at 0.1 mL/well, and cultured at 37° C. for 3 days under 5% CO2. At the completion of the culture, PBS supplemented with 1 mg/mL 2,3-bis-(2-methoxy-4-nitro-5-sulfophenyl)-5-((phenylamino)carbonyl)-2H-tetrazolium inner salt monosodium salt (XTT) and 25 μM phenazine methosulfate (PMS) was prepared and added thereto at 50 μL/well. Approximately 2 hours later, the absorbance at 450 nm was measured using a microplate reader.

[6] = test system: multidrug-resistant Pseudomonas aeruginosa clinical isolate (S-2838 strain); test: Defense against mouse systemic infection using multidrug-resistant Pseudomonas aeruginosa; assay type: in vivo; settings: male ICR mice, S-2838 strain i.p.
Description: The mice used were male ICR SPF mice (4 weeks old: 5 individuals per group). To prepare a bacterial inoculum solution, a multidrug-resistant Pseudomonas aeruginosa clinical isolate (S-2838 strain) cultured overnight at 37° C. on a Mueller-Hinton agar plate was cultured for 5 hours in a cation-adjusted Mueller-Hinton medium and then diluted 10-fold with a 10% mucin/phosphate buffer solution to prepare the inoculum solution. Infection was induced by the intraperitoneal inoculation of 0.5 mL of the inoculum solution (approximately 10^6 CFU/mouse) to each mouse. Each test compound was dissolved in a 10% hydroxypropylated β-cyclodextrin/2.5% mannitol aqueous solution and intravenously administered to the tail a single dose of 50 mg/kg at 1 hour after the infection. Three days after the infection, the number of survivors was recorded.

hERG current = biological target: T2, hERG current (Homo sapiens, UniProt Q12809); test: Evaluation of hERG inhibitory activity (whole cell clamp, HEK 293 cells); assay type: cell-based; settings: up to 300 μmol/L; HEK 293 cells transfected with hERG gene, tail current 10 minutes after application
T2 construct: host or cells: HEK 293 cells
Description: HEK 293 cells (human embryo kidney 293 cells, Cytomyx LLC) transfected with hERG gene (human ether-a-go-go related gene) were used. The culture solution used was a MEM medium containing 10% fetal bovine serum and 1% nonessential amino acid and further supplemented with Geneticin at a concentration of 400 μg/mL. The cells were cultured in a carbonic acid gas incubator (37.0° C., 5% CO2).
The hERG current was measured by a whole cell clamp method. A glass cover with the cells for measurement attached thereto was placed in a dish and perfused at a rate of 2 mL/min with a perfusate (composition: 137 mmol/L NaCl, 4 mmol/L KCl, 10 mmol/L HEPES, 1.8 mmol/L CaCl2, 1 mmol/L MgCl2, 10 mmol/L glucose, pH 7.4). The inside temperature of the perfusion chamber was kept at 25° C. […]
Before the application and 10 minutes after the application, the peak value of tail current in the hERG current waveform was analyzed to calculate the ratio of the value 10 minutes after the application to the value before the application (relative value, %).

[7] = test system: Chinese hamster lung fibroblasts (CHL/IU cells); test: In vitro micronucleus test for genotoxicity; assay type: cell-based; settings: dose of 1 mmol/L or lower, short-time treatment (with and without metabolic activation) and 30-hour treatment methods
Description: In order to examine the inducibility of the chromosomal aberrations by each test compound in cultured cells, the in vitro micronucleus test was carried out. This test was carried out by a short-time treatment method (in the presence and absence of a metabolic activation) and a 30-hour treatment method using Chinese hamster lung fibroblasts (CHL/IU cells). The concentration of the test compound was set to 1.00 mmol/L as the maximum dose with reference to the “Guidance on Genotoxicity Testing and Data Interpretation for Pharmaceuticals Intended for Human Use”. Specimens were observed as to doses of 0.25, 0.50 and 1.00 mmol/L. The cells were inoculated at 15×10^4 cells to a 60-mm dish (IWAKI) and precultured at 37° C. for 24 hours under 5% CO2 using a MEM medium (Sigma-Aldrich Co., Ltd.) containing 10% newborn calf serum (Sigma-Aldrich Co., Ltd.) and 50 U/mL-50 μg/mL Penicillin-Streptomycin (Sigma-Aldrich Co., Ltd.). After the completion of the preculture, a vehicle (DMSO) or each test compound was added thereto. In the short-time treatment method, 6 hours after the culture, the cells were washed with PBS(−) (Sigma-Aldrich Co., Ltd.), and then, the medium was replaced with a fresh medium, followed by further culture for 24 hours. In the 30-hour treatment method, after the addition of the test compound, the cells were cultured for 30 hours. […]

[8] = single intravenous dose 50 mg/kg 1 hour after infection

T2 sequence (Q12809 whole entry): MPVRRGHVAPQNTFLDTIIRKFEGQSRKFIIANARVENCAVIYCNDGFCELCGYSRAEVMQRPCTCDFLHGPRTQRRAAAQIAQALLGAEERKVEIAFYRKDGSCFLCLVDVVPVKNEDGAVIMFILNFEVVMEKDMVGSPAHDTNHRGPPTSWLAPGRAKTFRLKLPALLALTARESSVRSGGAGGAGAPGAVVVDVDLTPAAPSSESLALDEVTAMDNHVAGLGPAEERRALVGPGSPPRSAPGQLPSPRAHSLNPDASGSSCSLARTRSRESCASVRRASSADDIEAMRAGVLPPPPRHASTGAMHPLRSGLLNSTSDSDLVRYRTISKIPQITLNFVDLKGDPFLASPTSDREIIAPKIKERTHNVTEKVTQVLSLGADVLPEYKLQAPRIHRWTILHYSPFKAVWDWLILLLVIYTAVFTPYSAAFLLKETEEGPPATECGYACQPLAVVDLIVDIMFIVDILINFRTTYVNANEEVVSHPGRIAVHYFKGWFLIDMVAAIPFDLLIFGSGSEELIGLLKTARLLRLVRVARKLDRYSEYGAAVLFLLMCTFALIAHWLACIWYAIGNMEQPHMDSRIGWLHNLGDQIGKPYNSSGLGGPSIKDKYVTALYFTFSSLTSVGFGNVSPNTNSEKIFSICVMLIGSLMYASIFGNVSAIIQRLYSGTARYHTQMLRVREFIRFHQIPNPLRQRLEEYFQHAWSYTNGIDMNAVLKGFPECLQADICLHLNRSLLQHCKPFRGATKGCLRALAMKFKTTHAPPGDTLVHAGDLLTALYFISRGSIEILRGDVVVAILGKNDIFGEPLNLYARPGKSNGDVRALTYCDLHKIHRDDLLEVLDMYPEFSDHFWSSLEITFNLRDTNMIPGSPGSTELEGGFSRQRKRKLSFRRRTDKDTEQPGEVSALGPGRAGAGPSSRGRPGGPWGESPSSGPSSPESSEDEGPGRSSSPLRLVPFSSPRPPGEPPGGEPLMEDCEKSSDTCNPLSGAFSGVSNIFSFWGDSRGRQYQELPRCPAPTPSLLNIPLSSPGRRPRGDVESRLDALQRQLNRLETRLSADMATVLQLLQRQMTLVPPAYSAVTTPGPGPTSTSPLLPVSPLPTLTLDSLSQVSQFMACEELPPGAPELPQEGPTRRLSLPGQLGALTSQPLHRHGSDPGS

Row | Compound | IC50 [1] | MIC [2] | MIC [3] | MIC [4] | CC50 at 3 days [5] | mice surviving 3 days after the bacterial inoculation [6, 8] | mice surviving 3 days after the bacterial inoculation ([6]; 25 mg/kg) | hERG inhibitory activity (hERG current) | in vitro micronucleus test result [7]
1 | CNC(=O)[C@@](C)(C(=O)NO)N(C)C(=O)c1ccc(C#Cc2ccc([C@H](O)CCOC)cc2)cc1 [Example 36, (2S)—N-hydroxy-2-((4-((4-((1R)-1-hydroxy-3-methoxypropyl)phenyl)ethynyl)benzoyl)(methyl)amino)-N′,2-dimethylmalonamide] | < 0.05 µM | 0.25 mg/L (≈ 0.535 µM) | 1 mg/L (≈ 2.14 µM) | 0.5 mg/L (≈ 1.07 µM) | ≥ 100 mg/L | – | – | – | –
2 | CNC(=O)[C@@](C)(C(=O)NO)N(C)C(=O)c1ccc(C#Cc2ccc([C@@H](O)CO)cc2)cc1 [Example 19, (2S)-2-((4-((4-((1R)-1,2-dihydroxyethyl)phenyl)ethynyl)benzoyl)(methyl)amino)-N-hydroxy-N′,2-dimethyl-malonamide] | < 0.05 µM | – | – | 1 mg/L (≈ 2.28 µM) | ≥ 100 mg/L | 100% | – | – | –
3 | CNC(=O)[C@@](C)(C(=O)NO)N(C)C(=O)c1ccc(C#Cc2ccc([C@H](O)CO)cc2)cc1 [Example 20, (2S)-2-((4-((4-((1S)-1,2-dihydroxyethyl)phenyl)ethynyl)benzoyl)(methyl)amino)-N-hydroxy-N′,2-dimethyl-malonamide] | < 0.05 µM | – | – | 1 mg/L (≈ 2.28 µM) | ≥ 100 mg/L | 100% | ≥ 60% | did not exhibit hERG inhibitory activity | negative
4 | CNC(=O)[C@@](C)(C(=O)NO)N(C)C(=O)c1ccc(C#Cc2ccc([C@H](O)COC)cc2)cc1 [Example 23, (2S)—N-hydroxy-2-((4-((4-((1S)-1-hydroxy-2-methoxyethyl)phenyl)ethynyl)benzoyl)(methyl)amino)-N′,2-dimethyl-malonamide] | < 0.05 µM | 0.25 mg/L (≈ 0.551 µM) | 1 mg/L (≈ 2.21 µM) | 1 mg/L (≈ 2.21 µM) | ≥ 100 mg/L | 100% | – | did not exhibit hERG inhibitory activity | –
5 | CNC(=O)[C@@](C)(C(=O)NO)N(C)C(=O)c1ccc(C#Cc2ccc(COCCO)cc2)cc1 [Example 1, (2S)—N-hydroxy-2-((4-((4-((2-hydroxyethoxy)methyl)phenyl)ethynyl)benzoyl)(methyl)amino)-N′,2-dimethyl-malonamide] | < 0.05 µM | 0.25 mg/L (≈ 0.551 µM) | 1 mg/L (≈ 2.21 µM) | 1 mg/L (≈ 2.21 µM) | ≥ 100 mg/L | – | – | – | –
6 | CNC(=O)[C@@](C)(C(=O)NO)N(C)C(=O)c1ccc(C#Cc2ccc([C@H](O)CCCO)cc2)cc1 [Example 39, (2S)-2-((4-((4-((1R)-1,4-dihydroxybutyl)phenyl)ethynyl)benzoyl)(methyl)amino)-N-hydroxy-N′,2-dimethyl-malonamide] | < 0.05 µM | 0.5 mg/L (≈ 1.07 µM) | 1 mg/L (≈ 2.14 µM) | 1 mg/L (≈ 2.14 µM) | – | 100% | – | – | –
7 | CNC(=O)[C@@](C)(C(=O)NO)N(C)C(=O)c1ccc(C#Cc2ccc([C@H](O)/C=C/CO)cc2)cc1 [Example 40, (2S)-2-((4-((4-((1R,2E)-1,4-dihydroxybut-2-ene-1-yl)phenyl)ethynyl)benzoyl)(methyl)amino)-N-hydroxy-N′,2-dimethyl-malonamide] | < 0.05 µM | 0.5 mg/L (≈ 1.07 µM) | 1 mg/L (≈ 2.15 µM) | 1 mg/L (≈ 2.15 µM) | – | – | – | – | –
